The results in this text go back to ChEMBL document CHEMBL5223101, “Evolution of 3-(4-hydroxyphenyl)indoline-2-one as a scaffold for potent and selective anticancer activity” (RSC Med Chem, 2022).

Assay [1] relates to T47D. Put plainly: Anticancer activity against human T47D cells assessed as cell viability at 1 uM by tryphan blue staining based cell counter analysis relative to control. It is filed as functional. As to conditions: read-out: Activity.
For assay [2], the system named is BT-474. In words: Anticancer activity against human BT-474 cells assessed as cell viability at 1 uM by tryphan blue staining based cell counter analysis relative to control. The assay is classed as functional. The note with it: read-out: Activity.
For assay [3], the system named is MCF-10A. In words: Anticancer activity against human MCF-10A cells assessed as cell viability at 1 uM by tryphan blue staining based cell counter analysis relative to control. The assay is classed as functional. The note with it: read-out: Activity.
Assay [4] deals with HeLa. In words: Anticancer activity against human HeLa cells assessed as cell viability at 1 uM by tryphan blue staining based cell counter analysis relative to control. The assay is classed as functional. As to conditions: read-out: Activity.
For assay [5], the system named is HEK-293T. In words: Anticancer activity against human HEK293T cells assessed as cell viability at 1 uM by tryphan blue staining based cell counter analysis relative to control. The assay is classed as functional. The note with it: read-out: Activity.
Assay [6] has as its system ES-2. In words: Anticancer activity against human ES2 assessed as cell viability at 1 uM by tryphan blue staining based cell counter analysis relative to control. The assay is classed as functional. As to conditions: read-out: Activity.
For assay [7], the system named is T47D. Put plainly: Anticancer activity against human T47D cells assessed as cell proliferation incubated for 4 days by MTS assay. The assay is classed as functional, cell-based. As to conditions: 96 h. A general note: Tetrazolium dyes change colour on reduction, which living cells bring about.
Assay [8] concerns MCF7. In words: Anticancer activity against human MCF7 cells assessed as cell viability at 1 uM by tryphan blue staining based cell counter analysis relative to control. As to conditions: read-out: Activity. It is filed as functional.
The subject of assay [9] is MDA-MB-231. Put plainly: Anticancer activity against human MDA-MB-231 cells assessed as cell viability at 1 uM by tryphan blue staining based cell counter analysis relative to control. The note with it: read-out: Activity. The assay is classed as functional.
The test system of assay [10] is MDA-MB-231. Put plainly: Anticancer activity against human MDA-MB-231 cells assessed as cell growth inhibition incubated for 24 hrs. The assay is classed as functional, cell-based. The note with it: MDA-MB-231, 24 h, pooled result: one value given for 13 cell lines, strains, targets or settings.
Assay [11] relates to T47D. In words: Anticancer activity against human T47D cells assessed as cell growth inhibition incubated for 24 hrs. The assay is classed as functional, cell-based. The note with it: pooled result: one value given for 16 cell lines, strains, targets or settings.

One may read the IC50 as the midpoint of a concentration-inhibition curve. Turning to `Cc1cccc2c1NC(=O)C2(c1ccc(O)cc1)c1ccc(O)cc1`, the viability at 1 µM in assay [1], in assay [2], in [3], in assay [4], in [5] and in assay [6] was below 20% in each case. Further, the viability at 1 µM in [8] and in assay [9] was below 20% each time. In addition, in assay [7], the IC50 came out at 15 nM.
In the case of `O=C1Nc2c(C(F)(F)F)cccc2[C@@]1(c1ccc(O)cc1)c1ccc(OC(F)(F)F)cc1`, the IC50 in [10] stood at 12400 nM; in assay [11], 34 nM.
